Laboratory results: patent US20080003214A1, “Medicaments Comprising Carbonyl Compounds, And The Use Thereof” (priority 2004, published 2008)

molecular target: factor Xa (Homo sapiens, UniProt P00742); test: Inhibition of factor Xa (FXa-IC50); type: biochemical; details: Table 1, headed 'Affinity to receptors'; read-out: FXa-IC50
Text: The inhibition of factor Xa by the compounds according to the invention and the measurement of the anticoagulant and antithrombotic activity can be determined by conventional in-vitro or in-vivo methods. A suitable method is described, for example, by J. Hauptmann et al. in Thrombosis and Haemostasis 1990, 63, 220-223.
The inhibition of factor Xa can be measured, for example by the method of T. Hara et al. in Thromb. Haemostas. 1994, 71, 314-319.

factor Xa, sequence (P00742 235-488 limits assumed): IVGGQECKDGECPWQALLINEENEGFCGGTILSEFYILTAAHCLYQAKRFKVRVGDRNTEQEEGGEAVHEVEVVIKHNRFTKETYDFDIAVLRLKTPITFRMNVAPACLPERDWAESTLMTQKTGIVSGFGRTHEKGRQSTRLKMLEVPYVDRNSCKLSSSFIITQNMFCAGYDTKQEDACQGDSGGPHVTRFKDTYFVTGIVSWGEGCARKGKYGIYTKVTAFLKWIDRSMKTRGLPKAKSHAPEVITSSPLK
factor Xa, sequence (P00742 41-179 partner limits assumed): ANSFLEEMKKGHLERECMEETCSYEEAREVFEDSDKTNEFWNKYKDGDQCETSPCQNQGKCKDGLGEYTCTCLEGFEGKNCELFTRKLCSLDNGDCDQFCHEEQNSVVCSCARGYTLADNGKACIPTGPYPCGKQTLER

Row | Structure (SMILES) | IC50 [nM]
1 | O=C(Nc1ccc(N2CCOCC2=O)cc1)[C@H]1CCCN1C(=O)c1ccc(Cl)s1 [AB1] | 1800
2 | O=C(Nc1ccc(N2CCOCC2=O)cc1)[C@H]1CCCN1C(=O)Nc1ccc(Cl)cc1 [Compound A1, 1-N-[(4-chlorophenyl)]-2-N-{[4-(3-oxomorpholin-4-yl)phenyl]}-(R)-pyrrolidine-1,2-dicarboxamide] | 18
3 | O=C(Nc1ccc(-n2ccccc2=O)cc1)[C@H]1C[C@@H](O)CN1C(=O)Nc1ccc(Cl)cn1 [Compound A6, 1-N-[(5-chloropyridin-2-yl)]-2-N-{[4-(2-oxo-2H-pyridin-1-yl)phenyl]}-(2R,4R)-4-hydroxypyrrolidine-1,2-dicarboxamide] | 3.7

same assay, conditions: read-out: IC50(Xa)

Row | IC50 [nM] | Structure (SMILES)
4 | 4.8 | CCO[C@@H]1C[C@H](C(=O)Nc2ccc(-n3nc(C)sc3=N)cc2)N(C(=O)Nc2ccc(Cl)cc2)C1 [1-N-[(4-chlorophenyl)]-2-N-{[4-(2-imino-5-methyl-1,3,4-thiadiazol-3-yl)phenyl]}-(2R,4R)-4-ethoxypyrrolidine-1,2-dicarboxamide]
5 | 3 | Cc1nn(-c2ccc(NC(=O)[C@H]3C[C@@H](OC(C)C)CN3C(=O)Nc3ccc(Cl)cc3)cc2)c(=N)s1 [1-N-[(4-chlorophenyl)]-2-N-{[4-(2-imino-5-methyl-1,3,4-thiadiazol-3-yl)phenyl]}-(2R,4R)-4-isopropoxypyrrolidine-1,2-dicarboxamide]
6 | 6.1 | CO[C@@H]1C[C@H](C(=O)Nc2ccc(-n3nc(C)sc3=N)cc2)N(C(=O)Nc2ccc(Cl)cc2)C1 [1-N-[(4-chlorophenyl)]-2-N-{[4-(2-imino-5-methyl-1,3,4-thiadiazol-3-yl)phenyl]}-(2R,4R)-4-methoxypyrrolidine-1,2-dicarboxamide]
7 | 25 | Nc1ccc(O[C@H]2C[C@H](C(=O)Nc3ccc(N4CCOCC4=O)cc3)N(C(=O)Nc3ccc(Cl)cc3)C2)cc1 [Example 13-16, 1-N-[(4-chlorophenyl)]-2-N-{[4-(3-oxomorpholin-4-yl)phenyl]}-(2R,4S)-4-(4-aminophenoxy)pyrrolidine-1,2-dicarboxamide]
8 | 9.7 | O=C(Nc1ccc(N2CCOCC2=O)cc1)[C@H]1C[C@@H](OCC(F)(F)F)CN1C(=O)Nc1ccc(Cl)cc1 [Example 13-18, 1-N-[(4-chlorophenyl)]-2-N-{[4-(3-oxomorpholin-4-yl)phenyl]}-(2R,4R)-4-(2,2,2-trifluoroethoxy)pyrrolidine-1,2-dicarboxamide]

system: not given; test: not given; details: not given

Row | melting point [°C] | Structure (SMILES)
9 | 145 | [N-]=[N+]=N[C@H]1C[C@H](C(=O)Nc2ccc(N3CCOCC3=O)cc2)N(C(=O)Nc2ccc(Cl)cc2)C1 [Compound A9, 1-N-[(4-chlorophenyl)]-2-N-{[4-(3-oxomorpholin-4-yl)phenyl]}-(2R,4S)-4-azidopyrrolidine-1,2-dicarboxamide]
